Measurements reported in US6492329B1, “Cytokine and hemopoietic factor endogenous production enhancer and methods of use thereof” (Novelos Therapeutics, Inc., priority 1995, dated 2002).
Where “and” joins values, the source holds several entries; their conditions need not be identical. Equal values may be shown once.

Key:
normal human lymphocytes = test: Proliferation/apoptosis of normal human lymphocytes (cell number per well, flow cytofluorometry); format: cell-based
[1] = tested on: rat embrional fibroblasts (REF); test: Number of REF cells throughout 72-hr incubation; format: cell-based
Method in brief: (§1)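 REF cells in DMEM with 10% FCS, seeded at 800 000 cells/mL, were incubated with test articles for 72 h and counted per mL at 0, 24, 48 and 72 h. In the apoptosis set, cells received UV at 4 Dj with compounds added immediately after, and were counted every 24 h.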

[2] = tested on: e-ras cell line (REF transformed with E1A and ras-oncogene); test: Number of clones of e-ras cells throughout 72-hr incubation; format: cell-based, rat
Method in brief: (§2)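 REF and E1A/ras-transformed REF (e-ras) cells in DMEM with 10% fetal calf serum; e-ras seeded at 300 cells per 5 cm dish, test articles added after 7 days of growth. For apoptosis, UV at 4 Dj with test articles added immediately after. Clones per dish counted every 24 h over 72 h; DNA fragmentation by agarose gel electrophoresis.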

[3] = tested on: rat embrional fibroblasts (REF) after UV-irradiation; test: Number of REF cells after UV-irradiation; format: cell-based
Method in brief: as §1

[4] = tested on: e-ras cells after UV-irradiation; test: Number of clones of e-ras cells after UV-irradiation; format: cell-based, rat
Method in brief: as §2

leukemia P388 cells [5] = test: Leukemia P388 in mice: ascitic fluid and survival (Example 14); conditions: for Accumulation of ascitic (weight gain, %): leukemia P388
Method: (§3) An influence of 7 day course of test article daily administration was studied in respect of tumor progression, which was estimated using the two integral indices: pace of mouse weight gain due to accumulation of ascitic fluid, and by animal mean survival time after inoculation.
(§4) The study was carried out on DBA/2 mice weighing 18-21 g. First, tumor cell passage was performed using 6 animals for each cell line. For this, cells kept at the temperature of the liquid nitrogen were de-frozen and adjusted to the concentration of 5×10^6 cells/mL by sterile Hanks' solution. Then, 6 mice were intra peritoneally inoculated with 0.2 mL of each line cellular suspension.
(§5) Ascitic fluid was collected 6 days after the inoculation with L1210 cells, 8 days after the inoculation with P388 ones and 18 days after inoculation with Erlich adenocarcinoma cells. Thus obtained, the samples of passaged tumor cells were used for the main experiments. The fluid liquid was dissolved by sterile Hanks' solution so that cell concentration be 5×10^6 cells/mL for P388 cells and Erlich adenocarcinoma cells, 5×10^5 cells/mL for L1210 cells.
(§6) Eleven groups of animals with no less than 15 mice each were formed for experiments with either tumor cell line. Mice were inoculated with 0.2 mL of resultant cell suspensions per mouse (10^6 P388 and Erlich adenocarcinoma cells/mouse, and 10^5 L1210 cells/mouse). 24 hours after the tumor cells inoculation, animals were given the first injections of the test articles or vehicles. The test article injections were made daily till the 14th day of the experiment or till the animal death. The volume of solutions injected comprised 0.01 mL/g body weight.
(§7) #1—intact animals receiving imitation of tumor cell inoculation (injection of normal saline) which further were treated with normal saline throughout the entire experiment;
(§8) #2—control animals, inoculated with tumor cells, which further were treated with test article vehicle (normal saline);

leukemia L1210 cells [6] = test: Leukemia L1210 in mice: ascitic fluid and survival (Example 14); conditions: for Accumulation of ascitic (weight gain, %): leukemia L1210
Method: as §3, §4, §5, §6, §7, §8

[7] = tested on: Erlich adenocarcinoma cells; test: Erlich adenocarcinoma in mice: ascitic fluid and survival (Example 14); conditions: for Accumulation of ascitic (weight gain, %): Erlich adenocarcinoma
leukemia P388 cells [8] = test: Leukemia P388 in mice: serum cytokines, ascitic fluid, survival (Example 5); conditions: for Accumulation of ascitic fluid (weight gain) / Concentration in serum: IFNα / Concentration in serum: IL-1 / Concentration in serum: IL-2 / Concentration in serum: IL-6 / Concentration in serum: TNFα: P388 mice
Method: (§9) An influence of 7 day course of test article daily administration was studied in respect of variations of serum cytokine levels (IL-1, IL-2, IL-6, IFNα, TNF). In parallel, the tumor progression was estimated using the two integral indices: pace of mouse weight gain due to accumulation of ascitic fluid, and by animal mean survival time after inoculation.
(§10) The study was carried out on DBA/2 mice weighing 18-21 g. First, tumor cell passage was performed using 6 animals for each cell line. For this, cells kept at the temperature of the liquid nitrogen were de-frozen and adjusted to the concentration of 5×10^6 cells/mL by sterile Hanks' solution. Then, 6 mice were intraperitoneally inoculated with 0.2 mL of each line cellular suspension.
(§11) Ascitic fluid was collected 6 days after the inoculation with L1210 cells and 8 days after the inoculation with P388 ones. Thus obtained, the samples of passaged tumor cells were used for the main experiments. The fluid liquid was dissolved by sterile Hanks' solution so that cell concentration be 5×10^6 cells/mL for P388 cells and 5×10^5 cells/mL for L1210 cells.
(§12) Nine groups of animals with no less than 15 mice each were formed for experiments with either tumor cell line. Mice were inoculated with 0.2 mL of resultant cell suspensions per mouse (10^6 P388 cells/mouse, and 10^5 L1210 cells/mouse). 24 hours after the tumor cells inoculation. animals were given the first injections of the test articles or vehicles. The test article injections were made daily till the 14th day of the experiment or until the animal's death. The volume of solutions injected comprised 0.01 mL/g body weight.
as §7, §8

leukemia L1210 cells [9] = test: Leukemia L1210 in mice: serum cytokines, ascitic fluid, survival (Example 5); conditions: for Accumulation of ascitic fluid (weight gain) / Concentration in serum: IFNα / Concentration in serum: IL-1 / Concentration in serum: IL-2 / Concentration in serum: IL-6 / Concentration in serum: TNFα: L1210 mice
Method: as §9, §10, §11, §12, §7, §8

HL-60 cells = test: Proliferation/apoptosis of HL-60 tumor cells (cell number per well, flow cytofluorometry)
Method: Subsequent evaluation of the cell cycle parameters was carried out by the flow cytofluorometry technique.
A mononuclear fraction of blood leukocytes were obtained by centrifugation in gradient of fikoll-metrizoat (Histopaque, Sigma). […] Cell viability was estimated by the Trypan blue exclusion method, then the cell suspension was placed into wells of 96-well microtiter plates—200,000 cells per well. […] Cultivation was carried out in closed flasks, the medium volume was 12 mL, it was changed every four days by centrifugation. The nature of the cells growth was suspensive. […] 50 μL of each test solution were added to one or the other cell culture and thereafter cells were cultivated for 24-96 hours. Then, they were tested by the flow cytofluorometry to estimate DNA content in the cell nuclei. In case of apoptosis-like cellular death, the portion of cell nuclei with normal content of DNA became reduced, while the portion of cell nuclei containing abnormally small DNA quantity became larger.
The analysis procedure was the following: after incubation completion, cells were centrifuged and transferred to a standard phosphate isotonic buffer pH 7.4, containing RNA-ase A (20 μg/mL), ethidium bromide (fluorometric indicator for double stranded nucleic acid. 10 μg/mL) and MgCl2 (5 mM). After the cells were disintegrated by nonionic detergent Triton X-100 (final concentration 0.1%). The suspension of cell nuclei thus obtained was analyzed by flow cytofluorometry with an argon laser as a source of light (wave length 488 nm). The red fluorescence due to DNA bound ethidium bromide was taken to be the measure of DNA content in the cell nuclei.

[10] = tested on: CBA mice with cyclophosphamide-induced hemo- and immunodepression; test: Cyclophosphamide-induced hemo- and immunodepression in mice; format: in vivo, mouse; conditions: 5 mg/kg IP daily for 5 days
Method: The study was designed to evaluate the effect of a 5-day long administration of the test articles on the capability of the CP-treated murine splenocytes to produce IL-2 and GM-CSF in vitro. In addition, the number of blood leukocytes and lymphocytes and the bone marrow cellularity (number of karyocytes) were determined at 8 days after CP administration. Some animals receiving CP were then challenged with sheep red blood cells (SRBC), and the humoral immune response to the antigen was evaluated.
Male CBA mice (18 to 20 g body weight) were given a single intraperitoneal injection of CP in a dose of 50 mg/kg. […] Group description is represented below.
Injections were performed during 5 days: once a day, daily.
Twenty four hours after the completion of 5 day treatment course (on the 8th day after the CP injection), mice were euthanized and splenocyte cultures were aseptically prepared for assessment of spontaneous production of IL-2 and GM-CSF by the spleen lymphocytes in vitro.
Simultaneously, blood and marrow samples were collected for blood leukocyte and lymphocyte, and marrow nucleated cell counted,
Serum samples from immunized animals were tested on level of SRBC agglutinins (the day 8 after the CP injection, and the day 7 after the immunization).

[11] = tested on: CBA mice with radiation-induced hemo- and immunodepression; test: Radiation-induced hemo- and immunodepression in mice; format: in vivo, mouse; conditions: mice irradiated 1 Gy, 5 mg/kg IP daily for 7 days, day 8 post-exposure
Method: The study was designed to evaluate efficacy of 7-day daily administration of the test articles (with the dosing started 2 hours post-exposure) on the capability of the splenocytes from mice exposed to radiation to produce IL-2 and GM-CSF in vitro. In addition, the number of blood leukocytes and lymphocytes and the spleen and bone marrow cellularity (number of karyocytes), as well as splenic and medullary colony-stimulating capacity, were determined at 8 days post-exposure.
Male CBA mice (18 to 20 g body weight) were irradiated with single dose of 180 kV X-rays filtered with 0.5 mm Cu (at 15 mA, distance—70 cm, duration 2 min. and 28 sec.).
The total absorbed dose comprised approximately 1 Gy. Five groups of animals (with no less than 12 mice in each) were formed. Group description is represented below.
Injections were performed during 7 days: once a day, daily.
Twenty four hours after the completion of 7 day treatment course (on the 8th day after the irradiation). mice were euthanized and splenocyte cultures were aseptically prepared for assessment of spontaneous production of IL-2 and GM-CSF by the spleen lymphocytes in vitro.
Simultaneously, blood, spleen and marrow samples were collected for blood leukocyte and lymphocyte, and spleen and marrow nucleated cell counting.
Additionally, hemopoietic colony formation ability of spleen and bone marrow cells was, assessed by the method of direct count of colony forming units (CFU) in the spleens of irradiated CBA mice receiving intravenously spleen or bone marrow cells obtained from animals of control or test groups.

[12] = cyclophosphamide-treated mice, day 8 after CP

OO [0.003% H2O2, hydrogen peroxide]
number of normal lymphocytes per well (normal human lymphocytes; 24 hours incubation): 28 ± 2 × 10^4 cells
number of normal lymphocytes per well (normal human lymphocytes; 48 hours incubation): 73 ± 5 × 10^4 cells
number of normal lymphocytes per well (normal human lymphocytes; 72 hours incubation): 123 ± 8 × 10^4 cells
number of normal lymphocytes per well (normal human lymphocytes; 96 hours incubation): 206 ± 8 × 10^4 cells
number of REF cells (M ± m) ([1]; 0 hours of incubation): 822 ± 11 × 10^3 cells
number of REF cells (M ± m) ([1]; 24 hours of incubation): 1365 ± 14 × 10^3 cells
number of REF cells (M ± m) ([1]; 48 hours of incubation): 2598 ± 63 × 10^3 cells
number of REF cells (M ± m) ([1]; 72 hours of incubation): 5059 ± 34 × 10^3 cells
number of clones of e-ras cells (M ± m) ([2]; 0 hours of incubation): 288 ± 4
number of clones of e-ras cells (M ± m) ([2]; 24 hours of incubation): 286 ± 4
number of clones of e-ras cells (M ± m) ([2]; 48 hours of incubation): 264 ± 3
number of clones of e-ras cells (M ± m) ([2]; 72 hours of incubation): 234 ± 6
number of REF cells after UV-irradiation (M ± m) ([3]; 0 hours): 822 ± 11 × 10^3 cells
number of REF cells after UV-irradiation (M ± m) ([3]; 24 hours): 365 ± 14 × 10^3 cells
number of REF cells after UV-irradiation (M ± m) ([3]; 48 hours): 258 ± 33 × 10^3 cells
number of REF cells after UV-irradiation (M ± m) ([3]; 72 hours): 159 ± 24 × 10^3 cells
number of clones of e-ras cells after UV-irradiation (M ± m) ([4]; 0 hours): 288 ± 4
number of clones of e-ras cells after UV-irradiation (M ± m) ([4]; 24 hours): 186 ± 4
number of clones of e-ras cells after UV-irradiation (M ± m) ([4]; 48 hours): 124 ± 3
number of clones of e-ras cells after UV-irradiation (M ± m) ([4]; 72 hours): 84 ± 6
Accumulation of ascitic (weight gain, %) (leukemia P388 cells [5]; number of injection 0): 0.7 ± 0.2%
Accumulation of ascitic (weight gain, %) (leukemia P388 cells [5]; number of injection 3): 4.1 ± 0.4%
Accumulation of ascitic (weight gain, %) (leukemia P388 cells [5]; number of injection 7): 19.0 ± 2.1%
Mean survival time (leukemia P388 cells [5]; mice inoculated with leukemia P388 cells): 21.2 ± 0.8
Accumulation of ascitic (weight gain, %) (leukemia L1210 cells [6]; number of injection 0): 0.77 ± 0.2%
Accumulation of ascitic (weight gain, %) (leukemia L1210 cells [6]; number of injection 3): 6.1 ± 0.4%
Accumulation of ascitic (weight gain, %) (leukemia L1210 cells [6]; number of injection 7): 19.2 ± 2.2%
Mean survival time (leukemia L1210 cells [6]; mice inoculated with leukemia L1210 cells): 9.2 ± 0.8
Accumulation of ascitic (weight gain, %) ([7]; number of injection 0): 0.9 ± 0.2%
Accumulation of ascitic (weight gain, %) ([7]; number of injection 3): 14.1 ± 0.6%
Accumulation of ascitic (weight gain, %) ([7]; number of injection 7): 27.2 ± 1.2%
Mean survival time ([7]; mice inoculated with Erlich adenocarcinoma cells): 9.8 ± 0.8
Accumulation of ascitic fluid (weight gain) (leukemia P388 cells [8]; 0 injections): 0.63 ± 0.15%
Concentration in serum: IFNα (leukemia P388 cells [8]; 0 injections): 129. ± 10.0 pg/mL
Concentration in serum: IL-1 (leukemia P388 cells [8]; 0 injections): 15.5 ± 2.04 pg/mL
Concentration in serum: IL-2 (leukemia P388 cells [8]; 0 injections): 14.95 ± 2.16 pg/mL
Concentration in serum: IL-6 (leukemia P388 cells [8]; 0 injections): 134.0 ± 15.6 pg/mL
Concentration in serum: TNFα (leukemia P388 cells [8]; 0 injections): 119. ± 9.13 pg/mL
Accumulation of ascitic fluid (weight gain) (leukemia P388 cells [8]; 3 daily injections): 5.4 ± 0.62%
Concentration in serum: IFNα (leukemia P388 cells [8]; 3 daily injections): 205.8 ± 18.3 pg/mL
Concentration in serum: IL-1 (leukemia P388 cells [8]; 3 daily injections): 44.7 ± 6.14 pg/mL
Concentration in serum: IL-2 (leukemia P388 cells [8]; 3 daily injections): 22.0 ± 2.81 pg/mL
Concentration in serum: IL-6 (leukemia P388 cells [8]; 3 daily injections): 156.0 ± 16.3 pg/mL
Concentration in serum: TNFα (leukemia P388 cells [8]; 3 daily injections): 144.5 ± 12.8 pg/mL
Accumulation of ascitic fluid (weight gain) (leukemia P388 cells [8]; 7 daily injections): 20.3 ± 2.28%
Concentration in serum: IFNα (leukemia P388 cells [8]; 7 daily injections): 190. ± 16.7 pg/mL
Concentration in serum: IL-1 (leukemia P388 cells [8]; 7 daily injections): 28.6 ± 4.11 pg/mL
Concentration in serum: IL-2 (leukemia P388 cells [8]; 7 daily injections): 40.8 ± 5.12 pg/mL
Concentration in serum: IL-6 (leukemia P388 cells [8]; 7 daily injections): 110.9 ± 12.5 pg/mL
Concentration in serum: TNFα (leukemia P388 cells [8]; 7 daily injections): 248. ± 20.7 pg/mL
Mean survival time (leukemia P388 cells [8]; mice inoculated with leukemia P388 cells, daily injections till day 14 or death): 9.9 ± 0.24
Accumulation of ascitic fluid (weight gain) (leukemia L1210 cells [9]; 0 injections): 0.79%
Concentration in serum: IFNα (leukemia L1210 cells [9]; 0 injections): 133.7 pg/mL
Concentration in serum: IL-1 (leukemia L1210 cells [9]; 0 injections): 17.07 pg/mL
Concentration in serum: IL-2 (leukemia L1210 cells [9]; 0 injections): 16.18 pg/mL
Concentration in serum: IL-6 (leukemia L1210 cells [9]; 0 injections): 120.9 pg/mL
Concentration in serum: TNFα (leukemia L1210 cells [9]; 0 injections): 110. pg/mL
Accumulation of ascitic fluid (weight gain) (leukemia L1210 cells [9]; 3 daily injections): 6.12%
Concentration in serum: IFNα (leukemia L1210 cells [9]; 3 daily injections): 189. pg/mL
Concentration in serum: IL-1 (leukemia L1210 cells [9]; 3 daily injections): 38.15 pg/mL
Concentration in serum: IL-2 (leukemia L1210 cells [9]; 3 daily injections): 23.5 pg/mL
Concentration in serum: IL-6 (leukemia L1210 cells [9]; 3 daily injections): 140. pg/mL
Concentration in serum: TNFα (leukemia L1210 cells [9]; 3 daily injections): 158.0 pg/mL
Accumulation of ascitic fluid (weight gain) (leukemia L1210 cells [9]; 7 daily injections): 21.61%
Concentration in serum: IFNα (leukemia L1210 cells [9]; 7 daily injections): 209. pg/mL
Concentration in serum: IL-1 (leukemia L1210 cells [9]; 7 daily injections): 23.6 pg/mL
Concentration in serum: IL-2 (leukemia L1210 cells [9]; 7 daily injections): 45.5 pg/mL
Concentration in serum: IL-6 (leukemia L1210 cells [9]; 7 daily injections): 103. pg/mL
Concentration in serum: TNFα (leukemia L1210 cells [9]; 7 daily injections): 220.0 ± pg/mL
Mean survival time (leukemia L1210 cells [9]; mice inoculated with leukemia L1210 cells, daily injections till day 14 or death): 9.7 ± 0.21
number of HL-60 cells per well (HL-60 cells; 24 hours incubation): 122 ± 6 × 10^4 cells
number of HL-60 cells per well (HL-60 cells; 48 hours incubation): 186 ± 12 × 10^4 cells
number of HL-60 cells per well (HL-60 cells; 72 hours incubation): 488 ± 24 × 10^4 cells
number of HL-60 cells per well (HL-60 cells; 96 hours incubation): 712 ± 22 × 10^4 cells

N[C@@H](CCC(=O)N[C@@H](CS)C(=O)NCC(=O)O)C(=O)O [GSH, γ-glutamyl-cysteinyl-glycine]
SRBC agglutinin titer ([10]; cyclophosphamide-treated mice immunized with SRBC, day 7 after immunization): 1.94 log2 and 1.62 log2 and 2.09 log2
Blood leukocyte count [10, 12]: 5.2 ± 10^9/L and 6.3 ± 10^9/L and 6.2 ± 10^9/L
Blood lymphocyte count [10, 12]: 4.3 ± 10^9/L and 4.6 ± 10^9/L and 5.31 ± 10^9/L
Bone marrow nucleated cell number [10, 12]: 32.2 ± 10^6/L and 36.4 ± 10^6/L
IL-2 production by splenocytes [10, 12]: 17.2 U/mL and 15.3 U/mL and 20.3 U/mL
Blood leukocyte count [11]: 4.8 ± 10^9/L and 5.7 ± 10^9/L and 4.95 ± 10^9/L
Blood lymphocyte count [11]: 3.4 ± 10^9/L and 4.6 ± 10^9/L and 4.0 ± 10^9/L
Bone marrow CFU [11]: 22.1 and 25.6 and 25.3
Bone marrow nucleated cell number [11]: 17.2 ± 10^6/L and 24.7 ± 10^6/L and 22.5 ± 10^6/L
IL-2 production by splenocytes [11]: 8.6 U/mL and 9.3 U/mL and 9.9 U/mL
Spleen CFU [11]: 56.3 and 66.3 and 59.8
Spleen nucleated cell number [11]: 4.3 ± 10^7/L and 6.93 ± 10^7/L and 5.5 ± 10^7/L
